Assay results as given in patent US20110039879A1, “METHODS FOR INCREASING WHITE BLOOD CELLS” (FibroGen ,Inc., priority 2007, published 2011).

What was measured:
Assay type in all cases: in vivo, Swiss-Webster mice
[1] = test system: hematopoietic progenitor cells (HPCs) in bone marrow; assay: Hematopoietic progenitor cells in bone marrow by FACS analysis; conditions: mice, oral gavage, tibia bone marrow 6 h after final dosing
Method: (§1) Six hours after the final dosing, 200 μl blood samples were collected for detection of hematopoietic progenitor cells (HPCs) and neutrophils by FACS analysis using methods previously described. (See, e.g., Wang et al. (1997) J Leukoc Biol 62 503-9 and Legasse et al. (1996) J Immunol Methods 197:139-50.) Briefly, leukocytes and progenitor cells were isolated from whole blood samples following erythrocyte depletion using red blood cell lysis buffer (eBioscience) according to the manufacturer's instructions. The remaining cells were incubated for one hour with monoclonal antibodies directed against mouse Sca-1 and mouse c-Kit (cell surface markers for HPCs, BD Pharmingen), or mouse Mac-1 and mouse Gr-1 (cell surface markers for murine neutrophils, BD Pharmingen). Following incubation with the monoclonal antibodies, the cells were washed three times with sort buffer (PBS, 1% fetal bovine serum) and resuspended in sort buffer containing 50 μg/ml of propidium iodide. Samples were then analyzed for the presence and quantitation of HPCs and neutrophils by flow cytometry (FACS Calibur, Becton Dickinson). The cytometer was set to acquire 10 000 events. Two or three blood samples obtained from each animal were analyzed and the average recorded. Hematopoietic progenitor cells were determined as double positive Sca-1+/c-Kit+ cells and neutrophils were determined as double positive Mac-1+/Gr-1+ cells.
(§2) To examine the effect of compounds and methods of the present invention on hematopoietic progenitor cell (HPC) and neutrophil levels in bone marrow, the following studies were performed. Male Swiss-Webster mice were administered various compounds of the present invention via oral gavage using a ball-tipped gavage needle. Animals treated by oral gavage received a 10 ml/kg volume of either 0.5% carboxymethyl cellulose (CMC) with 0.1% Polysorbate 80 (vehicle control) or various doses (10-100 mg/kg) of a compound of the present invention in 0.5% CMC with 0.1% Polysorbate 80. Animals were dosed once daily for 3 or 4 days. Six hours after the final dosing, bone marrow samples were taken from one tibia of each animal and suspended in buffer (PBS with 1% fetal bovine serum). Bone marrow suspensions were then filtered through nylon filters to remove stromal cells. Following filtration, the remaining cells were counted manually using a hemocytometer. Detection and quantitation of HPCs and neutrophils were performed by FACS analysis as described above in Example 1.

neutrophils [2] = assay: Neutrophils (Mac-1+/Gr-1+) in blood by FACS analysis; conditions: mice, oral gavage, blood 6 h after final dosing
Method: (§3) To examine the effect of compounds and methods of the present invention on hematopoietic progenitor cell (HPC) and neutrophil levels, the following studies were performed. Male Swiss-Webster mice were administered various compounds of the present invention via oral gavage using a ball-tipped gavage needle. Animals treated by oral gavage received a 10 ml/kg volume of either 0.5% carboxymethyl cellulose (CMC) with 0.1% Polysorbate 80 (vehicle control) or various doses (10-100 mg/kg) of a compound of the present invention in 0.5% CMC with 0.1% Polysorbate 80. Animals were dosed once daily for 3 or 4 days.
as §1

[3] = test system: total white blood cell (WBC); assay: Total white blood cells by complete blood count, once daily dosing 3 or 4 days; conditions: mice, oral gavage, blood 6 h after final dosing
Method: as §3, with “increasing white blood cells,” for “hematopoietic progenitor cell (HPC) and neutrophil levels,”, “In one series of experiments, male” for “Male”, “days. Six hours after the final dosing, 200 μl blood samples were collected and total white blood cell, neutrophil, and lymphocyte levels were measured by complete blood count (CBC) using a CellDyn cell analyzer (Abbott Laboratories).” for “days.”

neutrophils [4] = assay: Neutrophils by complete blood count, once daily dosing 3 or 4 days; conditions: mice, oral gavage, blood 6 h after final dosing, CBC
Method: as §3, with “increasing white blood cells,” for “hematopoietic progenitor cell (HPC) and neutrophil levels,”, “In one series of experiments, male” for “Male”, “days. Six hours after the final dosing, 200 μl blood samples were collected and total white blood cell, neutrophil, and lymphocyte levels were measured by complete blood count (CBC) using a CellDyn cell analyzer (Abbott Laboratories).” for “days.”

[5] = test system: neutrophils in bone marrow; assay: Neutrophils in bone marrow by FACS analysis; conditions: mice, oral gavage, tibia bone marrow 6 h after final dosing
Method: as §1, §2

[6] = test system: hematopoietic progenitor cells (HPCs); assay: Hematopoietic progenitor cells (Sca-1+/c-Kit+) in blood by FACS analysis; conditions: mice, oral gavage, blood 6 h after final dosing
Method: as §3, §1

lymphocytes = assay: Lymphocytes by complete blood count, once daily dosing 3 or 4 days; conditions: mice, oral gavage, blood 6 h after final dosing, CBC
Method: as §3, with “increasing white blood cells,” for “hematopoietic progenitor cell (HPC) and neutrophil levels,”, “In one series of experiments, male” for “Male”, “days. Six hours after the final dosing, 200 μl blood samples were collected and total white blood cell, neutrophil, and lymphocyte levels were measured by complete blood count (CBC) using a CellDyn cell analyzer (Abbott Laboratories).” for “days.”

[7] = 100 mg/kg once daily for 4 days

Compound: Cc1cccc(C)c1Oc1ccc2c(C#N)nc(C(=O)NCC(=O)O)c(O)c2c1 [Compound C]
- Percent Bone Marrow HPCs ([1]; 20 mg/kg once daily for 3 days): 4.9 % gated cells
- Percent Bone Marrow HPCs Fold Increase Over Control ([1]; 20 mg/kg once daily for 3 days): 1.5 fold
- Percent Bone Marrow HPCs ([1]; 20 mg/kg once daily for 4 days): 1.4 % gated cells
- Percent Bone Marrow HPCs Fold Increase Over Control ([1]; 20 mg/kg once daily for 4 days): 1.2 fold
- Percent Bone Marrow HPCs ([1]; 60 mg/kg once daily for 3 days): 6.1 % gated cells
- Percent Bone Marrow HPCs Fold Increase Over Control ([1]; 60 mg/kg once daily for 3 days): 1.8 fold
- Percent Bone Marrow HPCs ([1]; 60 mg/kg once daily for 4 days): 1.8 % gated cells
- Percent Bone Marrow HPCs Fold Increase Over Control ([1]; 60 mg/kg once daily for 4 days): 1.5 fold
- Blood Neutrophils (neutrophils [2]; 20 mg/kg once daily for 3 days): 1,375 cells/μl
- Blood Neutrophils Fold Increase Over Control (neutrophils [2]; 20 mg/kg once daily for 3 days): 2.8 fold
- Percent Blood Neutrophils (neutrophils [2]; 20 mg/kg once daily for 3 days): 11.6 % gated cells
- Percent Blood Neutrophils Fold Increase Over Control (neutrophils [2]; 20 mg/kg once daily for 3 days): 1.2 fold
- Blood Neutrophils (neutrophils [2]; 20 mg/kg once daily for 4 days): 1,067 cells/μl
- Blood Neutrophils Fold Increase Over Control (neutrophils [2]; 20 mg/kg once daily for 4 days): 2.0 fold
- Percent Blood Neutrophils (neutrophils [2]; 20 mg/kg once daily for 4 days): 15.8 % gated cells
- Percent Blood Neutrophils Fold Increase Over Control (neutrophils [2]; 20 mg/kg once daily for 4 days): 1.5 fold
- Blood Neutrophils (neutrophils [2]; 60 mg/kg once daily for 3 days): 2,487 cells/μl
- Blood Neutrophils Fold Increase Over Control (neutrophils [2]; 60 mg/kg once daily for 3 days): 5.1 fold
- Percent Blood Neutrophils (neutrophils [2]; 60 mg/kg once daily for 3 days): 17.6 % gated cells
- Percent Blood Neutrophils Fold Increase Over Control (neutrophils [2]; 60 mg/kg once daily for 3 days): 1.8 fold
- Blood Neutrophils (neutrophils [2]; 60 mg/kg once daily for 4 days): 2,933 cells/μl
- Blood Neutrophils Fold Increase Over Control (neutrophils [2]; 60 mg/kg once daily for 4 days): 5.5 fold
- Percent Blood Neutrophils (neutrophils [2]; 60 mg/kg once daily for 4 days): 12.2 % gated cells
- Percent Blood Neutrophils Fold Increase Over Control (neutrophils [2]; 60 mg/kg once daily for 4 days): 1.2 fold
- Total WBC ([3]; 20 mg/kg once daily for 3 days): 11.80 10^3 cells/μl
- Total WBC % Increase Over Control ([3]; 20 mg/kg once daily for 3 days): 117%
- Total WBC ([3]; 20 mg/kg once daily for 4 days): 18.83 10^3 cells/μl
- Total WBC % Increase Over Control ([3]; 20 mg/kg once daily for 4 days): 167%
- Total WBC ([3]; 60 mg/kg once daily for 3 days): 14.50 10^3 cells/μl
- Total WBC % Increase Over Control ([3]; 60 mg/kg once daily for 3 days): 166%
- Total WBC ([3]; 60 mg/kg once daily for 4 days): 24.33 10^3 cells/μl
- Total WBC % Increase Over Control ([3]; 60 mg/kg once daily for 4 days): 245%
- Neutrophils (neutrophils [4]; 20 mg/kg once daily for 3 days): 0.97 10^3 cells/μl
- Neutrophils % Increase Over Control (neutrophils [4]; 20 mg/kg once daily for 3 days): 142%
- Neutrophils (neutrophils [4]; 20 mg/kg once daily for 4 days): 0.77 10^3 cells/μl
- Neutrophils % Increase Over Control (neutrophils [4]; 20 mg/kg once daily for 4 days): −4%
- Neutrophils (neutrophils [4]; 60 mg/kg once daily for 3 days): 1.73 10^3 cells/μl
- Neutrophils % Increase Over Control (neutrophils [4]; 60 mg/kg once daily for 3 days): 333%
- Neutrophils (neutrophils [4]; 60 mg/kg once daily for 4 days): 1.37 10^3 cells/μl
- Neutrophils % Increase Over Control (neutrophils [4]; 60 mg/kg once daily for 4 days): 71%
- Percent Bone Marrow Neutrophils ([5]; 20 mg/kg once daily for 3 days): 47.1 % gated cells
- Percent Bone Marrow Neutrophils Fold Increase Over Control ([5]; 20 mg/kg once daily for 3 days): 1.2 fold
- Percent Bone Marrow Neutrophils ([5]; 60 mg/kg once daily for 3 days): 41.3 % gated cells
- Percent Bone Marrow Neutrophils Fold Increase Over Control ([5]; 60 mg/kg once daily for 3 days): 1.0 fold
- Blood HPCs ([6]; 20 mg/kg once daily for 3 days): 403 cells/μl
- Blood HPCs Fold Increase Over Control ([6]; 20 mg/kg once daily for 3 days): 2.7 fold
- Percent Blood HPCs ([6]; 20 mg/kg once daily for 3 days): 3.4 % gated cells
- Percent Blood HPCs Fold Increase Over Control ([6]; 20 mg/kg once daily for 3 days): 1.6 fold
- Blood HPCs ([6]; 20 mg/kg once daily for 4 days): 155 cells/μl
- Blood HPCs Fold Increase Over Control ([6]; 20 mg/kg once daily for 4 days): 1.9 fold
- Percent Blood HPCs ([6]; 20 mg/kg once daily for 4 days): 0.9 % gated cells
- Percent Blood HPCs Fold Increase Over Control ([6]; 20 mg/kg once daily for 4 days): 0.7 fold
- Blood HPCs ([6]; 60 mg/kg once daily for 3 days): 486 cells/μl
- Blood HPCs Fold Increase Over Control ([6]; 60 mg/kg once daily for 3 days): 3.3 fold
- Percent Blood HPCs ([6]; 60 mg/kg once daily for 3 days): 3.4 % gated cells
- Percent Blood HPCs Fold Increase Over Control ([6]; 60 mg/kg once daily for 3 days): 1.5 fold
- Blood HPCs ([6]; 60 mg/kg once daily for 4 days): 336 cells/μl
- Blood HPCs Fold Increase Over Control ([6]; 60 mg/kg once daily for 4 days): 4.1 fold
- Percent Blood HPCs ([6]; 60 mg/kg once daily for 4 days): 1.4 % gated cells
- Percent Blood HPCs Fold Increase Over Control ([6]; 60 mg/kg once daily for 4 days): 1.2 fold
- Lymphocytes (lymphocytes; 20 mg/kg once daily for 3 days): 10.63 10^3 cells/μl
- Lymphocytes % Increase Over Control (lymphocytes; 20 mg/kg once daily for 3 days): 117%
- Lymphocytes (lymphocytes; 20 mg/kg once daily for 4 days): 17.97 10^3 cells/μl
- Lymphocytes % Increase Over Control (lymphocytes; 20 mg/kg once daily for 4 days): 192%
- Lymphocytes (lymphocytes; 60 mg/kg once daily for 3 days): 12.70 10^3 cells/μl
- Lymphocytes % Increase Over Control (lymphocytes; 60 mg/kg once daily for 3 days): 159%
- Lymphocytes (lymphocytes; 60 mg/kg once daily for 4 days): 22.77 10^3 cells/μl
- Lymphocytes % Increase Over Control (lymphocytes; 60 mg/kg once daily for 4 days): 270%

Compound: COc1ccc(Oc2ccc3c(O)c(C(=O)NCC(=O)O)ncc3c2)cc1 [Compound A, {[4-Hydroxy-7-(4-methoxy-phenoxy)-isoquinoline-3-carbonyl]-amino}-acetic acid]
- Percent Bone Marrow HPCs ([1]; 60 mg/kg once daily for 3 days): 5.1 % gated cells
- Percent Bone Marrow HPCs Fold Increase Over Control ([1]; 60 mg/kg once daily for 3 days): 1.3 fold
- Percent Bone Marrow HPCs [1, 7]: 6.7 % gated cells
- Percent Bone Marrow HPCs Fold Increase Over Control [1, 7]: 1.5 fold
- Blood Neutrophils (neutrophils [2]; 60 mg/kg once daily for 3 days): 200 cells/μl
- Blood Neutrophils Fold Increase Over Control (neutrophils [2]; 60 mg/kg once daily for 3 days): 2.0 fold
- Percent Blood Neutrophils (neutrophils [2]; 60 mg/kg once daily for 3 days): 2.3 % gated cells
- Percent Blood Neutrophils Fold Increase Over Control (neutrophils [2]; 60 mg/kg once daily for 3 days): 1.6 fold
- Blood Neutrophils (neutrophils [2]; [7]): 1,083 cells/μl
- Blood Neutrophils Fold Increase Over Control (neutrophils [2]; [7]): 6.1 fold
- Percent Blood Neutrophils (neutrophils [2]; [7]): 11.3 % gated cells
- Percent Blood Neutrophils Fold Increase Over Control (neutrophils [2]; [7]): 3.4 fold
- Total WBC ([3]; 60 mg/kg once daily for 3 days): 8.66 10^3 cells/μl
- Total WBC % Increase Over Control ([3]; 60 mg/kg once daily for 3 days): 12%
- Total WBC [3, 7]: 9.62 10^3 cells/μl
- Total WBC % Increase Over Control [3, 7]: 14%
- Neutrophils (neutrophils [4]; 60 mg/kg once daily for 3 days): 0.78 10^3 cells/μl
- Neutrophils % Increase Over Control (neutrophils [4]; 60 mg/kg once daily for 3 days): 18%
- Neutrophils (neutrophils [4]; [7]): 1.22 10^3 cells/μl
- Neutrophils % Increase Over Control (neutrophils [4]; [7]): 94%
- Percent Bone Marrow Neutrophils ([5]; 60 mg/kg once daily for 3 days): 33.4 % gated cells
- Percent Bone Marrow Neutrophils Fold Increase Over Control ([5]; 60 mg/kg once daily for 3 days): 1.1 fold
- Percent Bone Marrow Neutrophils [5, 7]: 33.7 % gated cells
- Percent Bone Marrow Neutrophils Fold Increase Over Control [5, 7]: 1.3 fold
- Blood HPCs ([6]; 60 mg/kg once daily for 3 days): 76 cells/μl
- Blood HPCs Fold Increase Over Control ([6]; 60 mg/kg once daily for 3 days): 1.7 fold
- Percent Blood HPCs ([6]; 60 mg/kg once daily for 3 days): 0.9 % gated cells
- Percent Blood HPCs Fold Increase Over Control ([6]; 60 mg/kg once daily for 3 days): 1.4 fold
- Blood HPCs [6, 7]: 125 cells/μl
- Blood HPCs Fold Increase Over Control [6, 7]: 7.4 fold
- Percent Blood HPCs [6, 7]: 1.3 % gated cells
- Percent Blood HPCs Fold Increase Over Control [6, 7]: 4.1 fold
- Lymphocytes (lymphocytes; 60 mg/kg once daily for 3 days): 7.82 10^3 cells/μl
- Lymphocytes % Increase Over Control (lymphocytes; 60 mg/kg once daily for 3 days): 14%
- Lymphocytes (lymphocytes; [7]): 8.30 10^3 cells/μl
- Lymphocytes % Increase Over Control (lymphocytes; [7]): 8%
